Results on 4 molecules are retold here after patent US10690673B2, “Method of treating cancer metastasis by CDK 4/6 inhibitors” (Mayo Foundation for Medical Education and Research, priority 2016, dated 2020).

Molecules are shown by their SMILES. Where a SMILES comes first, the peptide text is derived from it. The star is where a group is joined. Cbz = O=C(OCc1ccccc1)*

For one assay, the system named is SNAIL1 polypeptide. The assay can be described thus: SNAIL1 polypeptide level by Western blotting in breast cancer cells. The following applies: for SNAIL1 polypeptide level: 0, 3, 6, or 9 μM for 18 hours. The assay is classed as cell-based, human. The procedure:
FIG. 3. DUB3 deubiquitinates and stabilizes SNAIL1. (A) Cell extracts were prepared from 4 luminal and 4 basal like subtypes of human breast cancer cell lines, and expression of SNAIL1, DUB3, E-cadherin and vimentin was analyzed by Western blotting. (B) MDA-MB-231 cells stably expressing control or DUB3 shRNAs were generated and Western blot was performed with the indicated antibodies. (C) Total RNA was isolated from cells in (B). mRNAs encoding SNAIL and β-actin were determined by reverse transcription-polymerase chain reaction (RT-PCR) and agarose gel electrophoresis. (D) MDA-MB-231 cells stably expressing control or DUB3 shRNAs were treated with vehicle or MG-132 (10 μM) for 1 hour and Western blot was performed with the indicated antibodies. (E-F) T47D and MCF-7 cells were infected with virus containing vector (“V”), FLAG-DUB3 (“WT”) and the C89S (“CS”) mutant, and Western blots were performed. (F) CHX pulse-chase assay was performed in cells. (G) Cells were cotransfected with indicated plasmids and treated with MG132 for 6 hours before cell lysates were boiled and immunoprecipitated with HA beads, and the polyubiquitylated SNAIL1 polypeptide was detected by an anti-ubiquitin antibody. (H) Cells were transfected with HA-SNAIL1 and treated with MG132 for 6 hours. Cell lysates were boiled and immunoprecipitated with HA beads and incubated with GST, GST-DUB3 or GST-DUB3 C89S mutant. The polyubiquitylated SNAIL1 polypeptide was detected by an anti-ubiquitin antibody.
FIG. 10. Ser41 phosphorylation regulates DUB3 activity. (A) Cells transfected with indicated constructs were lysed and co-immunoprecipitations experiments were performed using anti-FLAG antibody. The immunoprecipates were eluted by FLAG-peptide containing buffer and the activities of DUB3 were assayed using Ubiquitin-AMC (Ub-AMC) as a substrate. (B) The eluates were detected with anti-FLAG antibody. (C) MDA-MB-231 cells were treated with either vehicle or […] for indicated periods. Western blotting was performed with indicated antibodies.
FIG. 11. Phosphorylation of Ser41 regulates DUB3 activity. (A) Cells were cotransfected with indicated plasmids and treated with vehicle or CDK 4/6 inhibitor (PD0332991 10 μM). Cell lysates were boiled and immunoprecipitated with HA beads and immunoblotted as indicated. […] (G) The migratory abilities of cells were analyzed by a wound healing assay. […] After 12 weeks, mice were sacrificed and the development of lung metastases was determined by counting and quantifying lung metastatic nodules.
FIG. 14. […] (B) MDA-MB-231 cells were treated with vehicle or LY2835219 and the migration ability of cells was measured by a wound healing assay. […] (D) HCC1806 cells were treated with vehicle or LY2835219 and the migration ability of cells was measured by a wound healing assay. […]
In general terms: A western blot detects proteins with antibodies after separation by electrophoresis.

Assay [1] relates to human breast tumor biopsy sample HCI001. The assay can be described thus: Patient-derived xenograft (PDX) model of triple negative breast cancer, tumor growth and metastasis. The format is in vivo, mice. To be noted: 100 mg/kg daily, PO, five weeks; saline group 6/8; significantly decreased. On the procedure:
FIG. 13. CDK 4/6 inhibition inhibits cancer metastasis. (A) DUB3 and SNAIL1 polypeptide levels in a subset of human breast tumor biopsy samples were examined. (B) Passage 3 tumors from HCI001 were used to test the effect of PD0332991 on metastasis. When primary tumors reached 100-150 mm^3, mice were randomized and treated either with saline or PD0332991 for five weeks (n=8). Tumor weights were measured after mice were sacrificed (B). Tumor volumes were measured every week (C). After mice were sacrificed, liver (D-F) and lung (G-I) metastatic nodules were examined macroscopically or detected in paraffin-embedded sections stained with H&E. (J) The working model to illustrate that CDK 4/6 phosphorylation-dependent activation of DUB3 regulates EMT and metastasis through SNAIL1.
The results provided herein indicate that DUB3 stabilizes SNAIL1 polypeptide through deubiquitinating SNAIL1 and CDK 4/6 activity is involved in SNAIL1 stabilization. […] DUB3 and SNAIL1 levels were detected and correlated in a subset of human breast cancer samples from the BEAUTY project (FIG. 13A). […]
A patient-derived xenograft model was generated from an estrogen receptor-negative, progesterone receptor-negative, human epidermal growth factor receptor 2-negative (ER^−PR^−_HER2^−) high-grade invasive ductal carcinoma. […] Tumor volumes were measured once per week. […] Data were analyzed using Student's t test. […]
A general note: Xenograft models place foreign cells or tissue in a host animal.

Assay [2] has as its system phosphorylation of DUB3 at Ser41. Put plainly: Phosphorylation of DUB3 at Ser41 in transfected cells (anti-FLAG immunoprecipitation, Western blotting). The assay is classed as cell-based. The following applies: cells transfected with FLAG-DUB3 WT. On the procedure:
FIG. 8. CDK 4/6 phosphorylates DUB3 at Ser 41. (A) DUB3 phosphorylation sites were analyzed by mass spectrometry. If the Ascore values for Ascore Seq_A are above 19, then the location is considered confidently assigned (indicated with pink cell backgrounds). (B) Cells were transfected with indicated plasmids and cell lysates were subjected to immunoprecipitation with an anti-FLAG antibody and Western blotting was performed. (C) Cells were transfected with indicated plasmids and were treated with vehicle, or pan-CDK inhibitor (Roscovitine 5 μM) or CDK 4/6 inhibitor (PD0332991 10 μM). The phosphorylation of Ser41 was examined. (D) CDK 4/6 phosphorylates DUB3 in vitro. Bacterially expressed GST and GST-DUB3 fusion polypeptides were incubated with active CDK4 or CDK6 in the presence of [γ-32P]ATP. Polypeptides were resolved by SDS-PAGE, and phosphorylated polypeptides were visualized with autoradiography. (E) Vector or FLAG-DUB3 were transfected in cells stably expressing indicated shRNA. The phosphorylation of Ser41 in DUB3 was then examined.
FIG. 15. CDK1 phosphorylates DUB3 at Ser41 in vitro, and the treatment of pan-CDK inhibitor Roscovitine decreased phosphorylation of DUB3. (A) Bacterially-expressed GST-DUB3 WT and GST-DUB3 S41A fusion polypeptides were incubated with active CDK4, CDK6, CDK1, or CDK2 in the presence of [γ-^32P]ATP. […]

As to `Nc1nc(N)c(N=O)c(OCC2CCCCC2)n1` [DU6027], the SNAIL1 polypeptide level entry in the assay on SNAIL1 polypeptide (BT549 cells, FIG. 16) is listed as “decreases”; in the assay with SNAIL1 polypeptide (MDA-MB-231 cells, FIG. 17) it was “decreases”.
`CC(C)C[C@@H](C=O)NC(=O)[C@H](CC(C)C)NC(=O)[C@H](CC(C)C)NC(=O)OCc1ccccc1` [MG-132] (Cbz-Leu-Leu-Leu-aldehyde): in the assay with SNAIL1 polypeptide (MDA-MB-231 cells stably expressing DUB3 shRNAs, MG-132 10 μM for 1 hour, FIG. 3D), the “effect on decreased SNAIL1 polypeptide level in cells depleting DUB3” value is reported as “rescue”. The “effect on PD0332991-induced reduction of SNAIL1 polypeptide level” value in the assay on SNAIL1 polypeptide (MDA-MB-231 cells, PD0332991 in the presence of MG-132, FIG. 11D) is “reversed”.
On to `CC(=O)c1c(C)c2cnc(Nc3ccc(N4CCNCC4)cn3)nc2n(C2CCCC2)c1=O` [PD0332991, Palbociclib], for which, in assay [1], the “liver metastasis (mice with metastasis / mice in group)” value is reported as 1/8 and the “lung metastasis (mice with metastasis / mice in group)” value is reported as 2/8.
Consider `CC[C@H](CO)Nc1nc(NCc2ccccc2)c2ncn(C(C)C)c2n1` [Roscovitine], for which the “phosphorylation of DUB3 at Ser41” value in assay [2] (Example 11, FIG. 15B, concentration not given) was “dramatically reduced”; in assay [2] (Roscovitine 5 μM, FIG. 8C) it was “dramatically reduced”.
